Structures can show the parent of a compound that is named as a salt. Where two headings read alike, the source gives them in different places.
How the values were obtained:
[1] = biological target: T1, SARS-CoV-2 PLpro (nsp3 1564–1878) (Severe acute respiratory syndrome coronavirus 2, UniProt P0DTD1); test: biochemical; set-up: FRET-quenched peptide (Pro3) cleavage by PLpro, 10 min pre-incubation, slope over 20 min, normalised to no-compound control; conditions: high concentration screen, read-out: % of control remaining
[2] = biological target: T1, SARS-CoV-2 PLpro (nsp3 1564–1878); test: biochemical; set-up: FRET-quenched peptide (Pro3) cleavage by PLpro, 10 min pre-incubation, slope over 20 min, normalised to no-compound control; conditions: low concentration screen, read-out: % of control remaining

OC[C@H]1O[C@@H](Oc2cc(O)cc(/C=C/c3ccc(O)cc3)c2)[C@H](O)[C@@H](O)[C@@H]1O [Polydatin] gave a remaining activity at 3.75 µM ([1]; Well no.=6304) of 98.5%, a remaining activity at 3.75 µM ([1]; Well no.=8196) of 97.4% and a remaining activity at 1.25 µM ([2]; Well no.=6304) of 100%. It also gave a remaining activity at 1.25 µM ([2]; Well no.=8196) of 102%.

With Nc1cccc2c1C(=O)N(C1CCC(=O)NC1=O)C2=O (centres unmarked) [Pomalidomide] the remaining activity at 3.75 µM ([1]; Well no.=4963) was 96.3% and the remaining activity at 1.25 µM ([2]; Well no.=4963) was 100%.

Cc1ccc(C(=O)Nc2ccc(CN3CCN(C)CC3)c(C(F)(F)F)c2)cc1C#Cc1cnc2cccnn12 [Ponatinib (AP24534)] was tested, and the remaining activity at 3.75 µM ([1]; Well no.=4913) was 95.4% and the remaining activity at 1.25 µM ([2]; Well no.=4913) was 98.1%.

In the case of O=S(=O)(O)c1cc(S(=O)(=O)O)c2c(N=Nc3ccc(S(=O)(=O)O)c4ccccc34)c(O)ccc2c1 [Ponceau 4R], the remaining activity at 3.75 µM ([1]; Well no.=8550) is reported as 102% and the remaining activity at 1.25 µM ([2]; Well no.=8550) is reported as 104%.

In the case of CCC/N=C1\S/C(=C\c2ccc(OC[C@H](O)CO)c(Cl)c2)C(=O)N1c1ccccc1C [Ponesimod], the remaining activity at 3.75 µM ([1]; Well no.=8001) is reported as 102% and the remaining activity at 1.25 µM ([2]; Well no.=8001) is reported as 106%.

For CC[C@@H]([C@H](C)O)n1ncn(-c2ccc(N3CCN(c4ccc(OC[C@@H]5CO[C@@](Cn6cncn6)(c6ccc(F)cc6F)C5)cc4)CC3)cc2)c1=O [Posaconazole], the remaining activity at 3.75 µM ([1]; Well no.=4763) was 92.9% and the remaining activity at 1.25 µM ([2]; Well no.=4763) was 93.6%.

In the case of C#CCC(Cc1cnc2nc(N)nc(N)c2n1)c1ccc(C(=O)N[C@@H](CCC(=O)O)C(=O)O)cc1 (some centres unmarked) [Pralatrexate], the remaining activity at 3.75 µM ([1]; Well no.=7550) is reported as 95.8%, the remaining activity at 3.75 µM ([1]; Well no.=9172) is reported as 84.5% and the remaining activity at 1.25 µM ([2]; Well no.=7550) is reported as 97%. It also gave a remaining activity at 1.25 µM ([2]; Well no.=9172) of 83.9%.

CCCN[C@H]1CCc2nc(N)sc2C1 [Pramipexole (dihydrochloride)] showed a remaining activity at 3.75 µM ([1]; Well no.=6229) of 106% and a remaining activity at 1.25 µM ([2]; Well no.=6229) of 108%.

For CCCN[C@H]1CCc2nc(N)sc2C1 [Pramipexole], the remaining activity at 3.75 µM ([1]; Well no.=1983) was 104% and the remaining activity at 1.25 µM ([2]; Well no.=1983) was 101%.

CC(C)N(CCNC(=O)CN1CCCC1=O)C(C)C [Pramiracetam] showed a remaining activity at 3.75 µM ([1]; Well no.=4950) of 96.4% and a remaining activity at 1.25 µM ([2]; Well no.=4950) of 96.1%.

O=C(Nc1cccc2c(=O)cc(-c3nnn[nH]3)oc12)c1ccc(OCCCCc2ccccc2)cc1 [Pranlukast] gave a remaining activity at 3.75 µM ([1]; Well no.=1720) of 101%, a remaining activity at 3.75 µM ([1]; Well no.=7329) of 98.4% and a remaining activity at 1.25 µM ([2]; Well no.=1720) of 99.8%. It also gave a remaining activity at 1.25 µM ([2]; Well no.=7329) of 103%.

CC(C(=O)O)c1ccc2c(c1)Cc1cccnc1O2 (centres unmarked) [Pranoprofen] showed a remaining activity at 3.75 µM ([1]; Well no.=2139) of 99.8% and a remaining activity at 1.25 µM ([2]; Well no.=2139) of 98.7%.

In the case of CC(=O)Oc1cc2c(s1)CCN(C(C(=O)C1CC1)c1ccccc1F)C2 (centres unmarked) [Prasugrel (Effient)], the remaining activity at 3.75 µM ([1]; Well no.=4765) is reported as 104% and the remaining activity at 1.25 µM ([2]; Well no.=4765) is reported as 103%.

With CC(=O)Oc1cc2c(s1)CCN(C(C(=O)C1CC1)c1ccccc1F)C2 (centres unmarked) [Prasugrel] the remaining activity at 3.75 µM ([1]; Well no.=6562) was 102% and the remaining activity at 1.25 µM ([2]; Well no.=6562) was 97%.

Work on COc1ccc(-c2cc(=O)c3ccc(O)cc3o2)cc1 [Pratol] yielded a remaining activity at 3.75 µM ([1]; Well no.=3829) of 96.6% and a remaining activity at 1.25 µM ([2]; Well no.=3829) of 97.5%.

With COc1ccc(C(=O)c2c(C)n(CCN3CCOCC3)c3ccccc23)cc1 [Pravadoline] the remaining activity at 3.75 µM ([1]; Well no.=1805) was 97.7% and the remaining activity at 1.25 µM ([2]; Well no.=1805) was 97.2%.

CC[C@H](C)C(=O)O[C@H]1C[C@H](O)C=C2C=C[C@H](C)[C@H](CC[C@@H](O)C[C@@H](O)CC(=O)O)[C@H]21 [Pravastatin sodium salt hydrate] was tested, and the remaining activity at 3.75 µM ([1]; Well no.=5462) was 97.8% and the remaining activity at 1.25 µM ([2]; Well no.=5462) was 96.8%.

CC[C@H](C)C(=O)O[C@H]1C[C@H](O)C=C2C=C[C@H](C)[C@H](CC[C@@H](O)C[C@@H](O)CC(=O)O)[C@H]21 [Pravastatin sodium] showed a remaining activity at 3.75 µM ([1]; Well no.=4889) of 96.9% and a remaining activity at 1.25 µM ([2]; Well no.=4889) of 96.4%.

Compound O=C(C1CCCCC1)N1CC(=O)N2CCc3ccccc3C2C1 (centres unmarked) [Praziquantel] has a remaining activity at 3.75 µM ([1]; Well no.=908) of 104%, a remaining activity at 3.75 µM ([1]; Well no.=2155) of 100% and a remaining activity at 1.25 µM ([2]; Well no.=908) of 106%. It also gave a remaining activity at 1.25 µM ([2]; Well no.=2155) of 102%.

For COc1cc2nc(N3CCN(C(=O)C4=CC5C=CC4CC5)CC3)nc(N)c2cc1OC (centres unmarked) [Prazobind], the remaining activity at 3.75 µM ([1]; Well no.=1311) was 105% and the remaining activity at 1.25 µM ([2]; Well no.=1311) was 104%.

COc1cc2nc(N3CCN(C(=O)c4ccco4)CC3)nc(N)c2cc1OC [Prazosin (hydrochloride)] was tested, and the remaining activity at 3.75 µM ([1]; Well no.=6411) was 85.9% and the remaining activity at 1.25 µM ([2]; Well no.=6411) was 96.4%.

In the case of COc1cc2nc(N3CCN(C(=O)c4ccco4)CC3)nc(N)c2cc1OC [Prazosin.HCl], the remaining activity at 3.75 µM ([1]; Well no.=1689) is reported as 100% and the remaining activity at 1.25 µM ([2]; Well no.=1689) is reported as 103%.

For CC(=O)OCC(=O)[C@@]1(O)CC[C@H]2[C@@H]3CCC4=CC(=O)C=C[C@]4(C)[C@H]3[C@@H](O)C[C@@]21C [Prednisolone acetate], the remaining activity at 3.75 µM ([1]; Well no.=5859) was 95.6% and the remaining activity at 1.25 µM ([2]; Well no.=5859) was 102%.

C[C@]12C=CC(=O)C=C1CC[C@@H]1[C@@H]2[C@@H](O)C[C@@]2(C)[C@H]1CC[C@]2(O)C(=O)CO [Prednisolone] showed a remaining activity at 3.75 µM ([1]; Well no.=6605) of 102%, a remaining activity at 1.25 µM ([2]; Well no.=2141) of 99.3% and a remaining activity at 1.25 µM ([2]; Well no.=6605) of 102%.

For C[C@]12C=CC(=O)C=C1CC[C@@H]1[C@@H]2C(=O)C[C@@]2(C)[C@H]1CC[C@]2(O)C(=O)CO [Prednisone], the remaining activity at 3.75 µM ([1]; Well no.=2149) was 103%, the remaining activity at 3.75 µM ([1]; Well no.=7429) was 101% and the remaining activity at 1.25 µM ([2]; Well no.=2149) was 97.7%. It also gave a remaining activity at 1.25 µM ([2]; Well no.=7429) of 109%.

Work on CC(=O)[C@H]1CC[C@H]2[C@@H]3CC=C4C[C@@H](OS(=O)(=O)O)CC[C@]4(C)[C@H]3CC[C@]12C [Pregnenolone sulfate sodium] yielded a remaining activity at 3.75 µM ([1]; Well no.=1169) of 102% and a remaining activity at 1.25 µM ([2]; Well no.=1169) of 101%.

CC(=O)[C@H]1CC[C@H]2[C@@H]3CC=C4C[C@@H](O)CC[C@]4(C)[C@H]3CC[C@]12C [Pregnenolone] gave a remaining activity at 3.75 µM ([1]; Well no.=2151) of 103%, a remaining activity at 3.75 µM ([1]; Well no.=6277) of 102% and a remaining activity at 3.75 µM ([1]; Well no.=6919) of 106%. For the same compound, the remaining activity at 1.25 µM ([2]; Well no.=2151) was 103%, the remaining activity at 1.25 µM ([2]; Well no.=6277) was 106% and the remaining activity at 1.25 µM ([2]; Well no.=6919) was 108%.

COCCOc1ccc(N2CCN(CCn3ncc4c3nc(N)n3nc(-c5ccco5)nc43)CC2)cc1 [Preladenant] showed a remaining activity at 3.75 µM ([1]; Well no.=7141) of 102% and a remaining activity at 1.25 µM ([2]; Well no.=7141) of 102%.

Work on CCCNC(C)C(=O)Nc1ccccc1C (centres unmarked) [Prilocaine hydrochloride] yielded a remaining activity at 3.75 µM ([1]; Well no.=1355) of 98.5% and a remaining activity at 1.25 µM ([2]; Well no.=1355) of 97.2%.

Work on CCCNC(C)C(=O)Nc1ccccc1C (centres unmarked) [Prilocaine] yielded a remaining activity at 3.75 µM ([1]; Well no.=4616) of 93.7% and a remaining activity at 1.25 µM ([2]; Well no.=4616) of 100%.

COc1cc(NC(C)CCCN)c2ncccc2c1 (centres unmarked) [Primaquine] showed a remaining activity at 3.75 µM ([1]; Well no.=2153) of 98.9% and a remaining activity at 1.25 µM ([2]; Well no.=2153) of 97.8%.

— PMC8286840, “Identifying SARS-CoV-2 antiviral compounds by screening for small molecule inhibitors of Nsp3 papain-like protease” (Biochemical Journal, 2021)
